Reference: patent US9682993B2, “Anticancer compounds” (ST. JUDE CHILDREN'S RESEARCH HOSPITAL, priority 2012, dated 2017)

Tests used:
Assay type in all cases: cell-based
PC-3 = assay: Drug combination assay, PC-3; conditions: inhibitor + compound 19
Description: (§1) Preliminary cytotoxic screenings for each drug used in drug combination assays were performed to determine their cytotoxic dose range. […] Eight concentrations were established by 1:3 serial dilutions of the single drugs and their combinations with the splicing modulators. All drug concentrations were evaluated in triplicate in 96-well cell culture plates. Assays of individual drugs and drug combinations were run on the same tissue culture plate. Cell viability was determined using the CellTiter-Glo reagent. Drug interactions, in terms of synergism, additive effect, or antagonism, were based on the drugs' Combination Index (CI) (Chou et al., Adv. Enzyme Regul. 1984, 22, 27).
(§2) Luminescence data obtained from the cell viability determinations were formatted per the requirements of the analytical software (viability data range: >0 and <1). The formatted data were analyzed with the software CalcuSyn 2.1 (Biosoft, Cambridge, UK), which provides quantitative CI values for the drug interaction analyses (see ranges in Supplementary Table S2). […] Therefore, in these two cases the drug interaction was evaluated by comparing the IC50 value of Sudemycin with that of the IC50 values resulting from the serial dilutions of the splicing modulator combined with a constant dose of the non-toxic drug.

Sk-N-AS = assay: Drug combination assay, Sk-N-AS neuroblastoma; conditions: Sk-N-AS; inhibitor + compound 19
Description: as §1, with “reagent.” for “reagent. Drug interactions, in terms of synergism, additive effect, or antagonism, were based on the drugs' Combination Index (CI) (Chou et al., Adv. Enzyme Regul. 1984, 22, 27).”
(§3) Luminescence data obtained from the cell viability determinations were formatted per the requirements of the analytical software (viability data range: >0 and <1). The formatted data were analyzed with the software CalcuSyn 2.1 (Biosoft, Cambridge, UK), which provides quantitative CI values for the drug interaction analyses (see ranges in Supplementary Table S2).

HeLa = assay: Drug combination assay, HeLa; conditions: HeLa; inhibitor + compound 19
Description: as §1, §2

cell lines investigated = assay: Drug combination assays, cell line not stated
Description: as §1, with “reagent.” for “reagent. Drug interactions, in terms of synergism, additive effect, or antagonism, were based on the drugs' Combination Index (CI) (Chou et al., Adv. Enzyme Regul. 1984, 22, 27).”
as §3

WiDr = assay: Drug combination assay, WiDr; conditions: inhibitor + compound 19
Description: as §1, §2

JeKo-1 = assay: Drug combination assay, JeKo-1; conditions: inhibitor + compound 19
Description: as §1, §2

SK-MEL-2 = assay: Drug combination assay, SK-MEL-2
Description: as §1, with “reagent.” for “reagent. Drug interactions, in terms of synergism, additive effect, or antagonism, were based on the drugs' Combination Index (CI) (Chou et al., Adv. Enzyme Regul. 1984, 22, 27).”
as §3

## CO[C@H]1C[C@@H]2CC[C@@H](C)[C@@](O)(O2)C(=O)C(=O)N2CCCC[C@H]2C(=O)O[C@H]([C@H](C)C[C@@H]2CC[C@@H](OC(=O)C(C)(CO)CO)[C@H](OC)C2)CC(=O)[C@H](C)/C=C(\C)[C@@H](O)[C@@H](OC)C(=O)[C@H](C)C[C@H](C)/C=C/C=C/C=C/1C [Temsirolimus]
PC-3
  CI of 19 + inhibitor: 0.57
Sk-N-AS
  CI of 19 + inhibitor: 0.58
HeLa
  CI of 19 + inhibitor: 0.35
Cell lines investigated
  drug interaction with compound 20: demonstrated synergy
WiDr
  CI of 19 + inhibitor: 0.44
JeKo-1
  CI of 19 + inhibitor: 0.37
SK-MEL-2; Combination Index at ED50, CalcuSyn 2.1, listed drug + compound 19
  CI in SK-MEL-2 with compound 19: 0.68
SK-MEL-2; SK-MEL-2, inhibitor + compound 19
  CI of 19 + inhibitor: 0.68
SK-MEL-2; listed drug combined with compound 19, Ineffective = drug IC50 much higher than 1 μM
  Interaction Type: Synergism (0.3-0.7)
